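Interpolation was linear, between the two tested concentrations surrounding the appropriate level; five concentrations were tested over 48 hours in 96-well plates. TGI: concentration producing complete growth inhibition.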
Legend:
Test in all cases: NCI-60 cell line screen, 48 h
SR leukemia = test system: SR leukemia
HCT-116 colon = test system: HCT-116 colon
ACHN renal = test system: ACHN renal
OVCAR-5 ovarian = test system: OVCAR-5 ovarian
UO-31 renal = test system: UO-31 renal
SNB-75 CNS = test system: SNB-75 CNS
OVCAR-4 ovarian = test system: OVCAR-4 ovarian
SK-MEL-28 melanoma = test system: SK-MEL-28 melanoma
UACC-257 melanoma = test system: UACC-257 melanoma
SN12C renal = test system: SN12C renal
BT-549 breast = test system: BT-549 breast
SW-620 colon = test system: SW-620 colon
SF-295 CNS = test system: SF-295 CNS
COLO 205 colon = test system: COLO 205 colon
SF-539 CNS = test system: SF-539 CNS
OVCAR-8 ovarian = test system: OVCAR-8 ovarian
MCF7 breast = test system: MCF7 breast
A498 renal = test system: A498 renal
TK-10 renal = test system: TK-10 renal
K-562 leukemia = test system: K-562 leukemia
OVCAR-3 ovarian = test system: OVCAR-3 ovarian
HS 578T breast = test system: HS 578T breast
RPMI-8226 leukemia = test system: RPMI-8226 leukemia
SK-MEL-2 melanoma = test system: SK-MEL-2 melanoma
MDA-MB-435 = test system: MDA-MB-435
CCRF-CEM leukemia = test system: CCRF-CEM leukemia
NCI-H460 lung = test system: NCI-H460 lung
HCT-15 colon = test system: HCT-15 colon
SNB-19 CNS = test system: SNB-19 CNS
PC-3 prostate = test system: PC-3 prostate
T-47D breast = test system: T-47D breast
DU-145 prostate = test system: DU-145 prostate
NCI-H226 lung = test system: NCI-H226 lung
SK-OV-3 ovarian = test system: SK-OV-3 ovarian
MALME-3M melanoma = test system: MALME-3M melanoma
MOLT-4 leukemia = test system: MOLT-4 leukemia
NCI-H23 lung = test system: NCI-H23 lung
U251 CNS = test system: U251 CNS
HOP-92 NSCLC = test system: HOP-92 NSCLC
MDA-MB-231 breast = test system: MDA-MB-231 breast
IGROV1 ovarian = test system: IGROV1 ovarian
UACC-62 melanoma = test system: UACC-62 melanoma
HL-60(TB) leukemia = test system: HL-60(TB) leukemia
HOP-62 NSCLC = test system: HOP-62 NSCLC
SK-MEL-5 melanoma = test system: SK-MEL-5 melanoma
EKVX NSCLC = test system: EKVX NSCLC
NCI-H522 lung = test system: NCI-H522 lung
M14 melanoma = test system: M14 melanoma
LOX IMVI melanoma = test system: LOX IMVI melanoma
MDA-N = test system: MDA-N
A549 NSCLC = test system: A549 NSCLC
NCI/ADR-RES ovarian = test system: NCI/ADR-RES ovarian
SF-268 CNS = test system: SF-268 CNS
HCC-2998 colon = test system: HCC-2998 colon
KM12 colon = test system: KM12 colon
HT29 colon = test system: HT29 colon
786-0 renal = test system: 786-0 renal
CAKI-1 renal = test system: CAKI-1 renal
RXF 393 renal = test system: RXF 393 renal

CC(=O)NC1C(OCc2ccccc2)OC(CO)C(O)C1OCC(=O)N[C@@H](C)C(=O)N[C@H](CCC(=O)NCCCCNc1c2ccccc2nc2cccc([N+](=O)[O-])c12)C(N)=O (some centres undefined)
TGI (SR leukemia): > 100 µM | TGI (HCT-116 colon): 10 µM | TGI (ACHN renal): 11.3 µM | TGI (OVCAR-5 ovarian): > 27.5 µM | TGI (UO-31 renal): 6.62 µM | TGI (SNB-75 CNS): 4.69 µM | TGI (OVCAR-4 ovarian): 2.85 µM | TGI (SK-MEL-28 melanoma): 23.4 µM | TGI (UACC-257 melanoma): 5.36 µM | TGI (SN12C renal): 14.5 µM | TGI (BT-549 breast): 13.1 µM | TGI (SW-620 colon): 97 µM | TGI (SF-295 CNS): 37.3 µM | TGI (COLO 205 colon): 3.33 µM | TGI (SF-539 CNS): 6 µM | TGI (OVCAR-8 ovarian): 5.03 µM | TGI (MCF7 breast): 32 µM | TGI (A498 renal): 5.9 µM | TGI (TK-10 renal): 16.7 µM | TGI (K-562 leukemia): > 100 µM | TGI (OVCAR-3 ovarian): > 30.4 µM | TGI (HS 578T breast): > 31.3 µM | TGI (RPMI-8226 leukemia): 8.88 µM | TGI (SK-MEL-2 melanoma): 5 µM | TGI (MDA-MB-435): 3.96 µM | TGI (CCRF-CEM leukemia): > 100 µM | TGI (NCI-H460 lung): 3.36 µM | TGI (HCT-15 colon): 14.7 µM | TGI (SNB-19 CNS): 24 µM | TGI (PC-3 prostate): 9.44 µM | TGI (T-47D breast): 9.51 µM | TGI (DU-145 prostate): 12.4 µM | TGI (NCI-H226 lung): 7.49 µM | TGI (SK-OV-3 ovarian): > 71.8 µM | TGI (MALME-3M melanoma): 3.68 µM | TGI (MOLT-4 leukemia): > 100 µM | TGI (NCI-H23 lung): 2.54 µM | TGI (U251 CNS): 10.9 µM | TGI (HOP-92 NSCLC): 4.45 µM | TGI (MDA-MB-231 breast): 9.56 µM | TGI (IGROV1 ovarian): 4.74 µM | TGI (UACC-62 melanoma): 3.13 µM | TGI (HL-60(TB) leukemia): > 100 µM | TGI (HOP-62 NSCLC): > 52.2 µM | TGI (SK-MEL-5 melanoma): 2.58 µM | TGI (EKVX NSCLC): 8.97 µM | TGI (NCI-H522 lung): 0.594 µM | TGI (M14 melanoma): > 22.2 µM | TGI (LOX IMVI melanoma): 11.5 µM | TGI (MDA-N): 4.15 µM | TGI (A549 NSCLC): > 100 µM | TGI (NCI/ADR-RES ovarian): > 100 µM | TGI (SF-268 CNS): 14.5 µM | TGI (HCC-2998 colon): 2.91 µM | TGI (KM12 colon): 5.32 µM | TGI (HT29 colon): 7.86 µM | TGI (786-0 renal): 10.1 µM | TGI (CAKI-1 renal): > 23.2 µM

OC1(C(O)(c2ccc(-c3ccccc3)cc2)c2ccc(-c3ccccc3)cc2)CCCCC1
TGI (SR leukemia): > 100 µM | TGI (HCT-116 colon): > 100 µM | TGI (ACHN renal): > 100 µM | TGI (OVCAR-5 ovarian): > 100 µM | TGI (UO-31 renal): > 100 µM | TGI (SNB-75 CNS): > 100 µM | TGI (OVCAR-4 ovarian): > 100 µM | TGI (SK-MEL-28 melanoma): > 100 µM | TGI (UACC-257 melanoma): > 100 µM | TGI (RXF 393 renal): > 100 µM | TGI (SN12C renal): > 100 µM | TGI (BT-549 breast): > 100 µM | TGI (SW-620 colon): > 100 µM | TGI (SF-295 CNS): > 100 µM | TGI (COLO 205 colon): > 100 µM | TGI (SF-539 CNS): > 100 µM | TGI (OVCAR-8 ovarian): > 100 µM | TGI (MCF7 breast): > 100 µM | TGI (A498 renal): > 100 µM | TGI (TK-10 renal): > 100 µM | TGI (K-562 leukemia): > 100 µM | TGI (OVCAR-3 ovarian): > 100 µM | TGI (HS 578T breast): > 100 µM | TGI (RPMI-8226 leukemia): > 100 µM | TGI (SK-MEL-2 melanoma): > 100 µM | TGI (MDA-MB-435): > 100 µM | TGI (NCI-H460 lung): > 100 µM | TGI (HCT-15 colon): > 100 µM | TGI (SNB-19 CNS): > 100 µM | TGI (PC-3 prostate): > 100 µM | TGI (T-47D breast): > 100 µM | TGI (DU-145 prostate): > 100 µM | TGI (NCI-H226 lung): > 100 µM | TGI (SK-OV-3 ovarian): > 100 µM | TGI (MOLT-4 leukemia): > 100 µM | TGI (NCI-H23 lung): > 100 µM | TGI (U251 CNS): > 100 µM | TGI (HOP-92 NSCLC): > 100 µM | TGI (MDA-MB-231 breast): > 100 µM | TGI (IGROV1 ovarian): > 100 µM | TGI (UACC-62 melanoma): > 100 µM | TGI (HL-60(TB) leukemia): > 100 µM | TGI (HOP-62 NSCLC): > 100 µM | TGI (SK-MEL-5 melanoma): > 100 µM | TGI (EKVX NSCLC): > 100 µM | TGI (NCI-H522 lung): > 100 µM | TGI (M14 melanoma): > 100 µM | TGI (LOX IMVI melanoma): > 100 µM | TGI (MDA-N): > 100 µM | TGI (A549 NSCLC): > 100 µM | TGI (NCI/ADR-RES ovarian): > 100 µM | TGI (SF-268 CNS): > 100 µM | TGI (HCC-2998 colon): > 100 µM | TGI (KM12 colon): > 100 µM | TGI (HT29 colon): > 100 µM | TGI (786-0 renal): > 100 µM | TGI (CAKI-1 renal): > 100 µM

CCOC(=O)c1nc2ccccc2nc1Nc1ccc(F)cc1
TGI (SR leukemia): > 100 µM | TGI (HCT-116 colon): > 69.3 µM | TGI (ACHN renal): > 93.6 µM | TGI (OVCAR-5 ovarian): > 100 µM | TGI (UO-31 renal): > 100 µM | TGI (SNB-75 CNS): 18.5 µM | TGI (OVCAR-4 ovarian): > 100 µM | TGI (SK-MEL-28 melanoma): > 100 µM | TGI (UACC-257 melanoma): > 100 µM | TGI (RXF 393 renal): 26.7 µM | TGI (SN12C renal): > 100 µM | TGI (BT-549 breast): 73.2 µM | TGI (SW-620 colon): > 100 µM | TGI (SF-295 CNS): 28.9 µM | TGI (COLO 205 colon): > 100 µM | TGI (SF-539 CNS): > 58.9 µM | TGI (OVCAR-8 ovarian): 32 µM | TGI (MCF7 breast): > 100 µM | TGI (A498 renal): 58.5 µM | TGI (TK-10 renal): > 100 µM | TGI (K-562 leukemia): > 100 µM | TGI (OVCAR-3 ovarian): > 100 µM | TGI (HS 578T breast): > 84.8 µM | TGI (RPMI-8226 leukemia): > 100 µM | TGI (SK-MEL-2 melanoma): > 83.4 µM | TGI (MDA-MB-435): > 100 µM | TGI (CCRF-CEM leukemia): > 100 µM | TGI (NCI-H460 lung): > 100 µM | TGI (HCT-15 colon): > 100 µM | TGI (SNB-19 CNS): 46.6 µM | TGI (PC-3 prostate): > 100 µM | TGI (T-47D breast): > 86.1 µM | TGI (DU-145 prostate): > 100 µM | TGI (NCI-H226 lung): > 63.7 µM | TGI (SK-OV-3 ovarian): 37.7 µM | TGI (MALME-3M melanoma): > 100 µM | TGI (MOLT-4 leukemia): > 100 µM | TGI (NCI-H23 lung): 69.1 µM | TGI (U251 CNS): 70.6 µM | TGI (HOP-92 NSCLC): 43.9 µM | TGI (MDA-MB-231 breast): 24.2 µM | TGI (IGROV1 ovarian): 44.8 µM | TGI (UACC-62 melanoma): > 100 µM | TGI (HL-60(TB) leukemia): > 100 µM | TGI (HOP-62 NSCLC): 38.2 µM | TGI (SK-MEL-5 melanoma): > 100 µM | TGI (EKVX NSCLC): > 68.7 µM | TGI (NCI-H522 lung): > 100 µM | TGI (M14 melanoma): > 100 µM | TGI (LOX IMVI melanoma): > 100 µM | TGI (MDA-N): > 100 µM | TGI (A549 NSCLC): > 100 µM | TGI (NCI/ADR-RES ovarian): > 100 µM | TGI (SF-268 CNS): 30 µM | TGI (HCC-2998 colon): > 100 µM | TGI (KM12 colon): > 100 µM | TGI (HT29 colon): > 100 µM | TGI (786-0 renal): > 72.2 µM | TGI (CAKI-1 renal): > 100 µM
